Patent US20110071108A1, “Beta-Cyclodextrin Derivatives as Antibacterial Agents” (Pinnacle Pharmaceuticals, Inc., priority 2005, published 2011)

Key:
Assay in all cases: Bacterial panel testing, MIC by broth microdilution
Format in all cases: cell-based
Settings in all cases: 20-24 hours growth
[1] = test system: Enterococcus faecium
Experimental: (§1) One to three colonies of bacteria were picked from an Mueller-Hinton or Brain Heart infusion agar plate (depending on the bacterial strain) and transferred to 3 ml Mueller-Hinton broth or Brain Heart infusion media (depending on the bacterial strain). Bacteria were allowed to grow for 2-4 hours in an incubator at 37° C. Bacteria-inoculated media were dispersed in 0.9% saline to match McFarland standard density. 100 μl standardized inoculation was added to 20 ml media (dilution 1). 10 μl of the new dilution was added to 990 μl media and mixed (dilution 2). 10 μl of dilution 2 was spread on an agar plate and allowed to grow overnight. Colonies were then […].
(§2) Test compound was diluted to 10 μg/ml in dimethylsulfoxide. Four μl of Rifampicin antibiotic was loaded into row H, column 2.
(§3) All wells were then filled with 100 μl of inoculated media (dilution 1 from Example 1). A further 100 μl of the inoculated media was then added to column 2 and the contents are pipetted to thoroughly mix the contents. A full 100 μl was then transferred from column 2 and mixed into column 3. This process was continued from left to right until columns 2-12 were serially diluted, and the final draw from column 12 was discarded. The plates were covered with 3M sealing tape (plates containing Enterococcus faecium were sealed with Air Pore sealing tape) and allowed to grow for 20-24 hours. Cytotoxic wells (clear wells) are then scored and the potency of the compound was determined.

[2] = test system: Pseudomonas aeruginosa
Experimental: as §1, §2, §3

[3] = test system: Staphylococcus aureus
Experimental: as §1, §2, §3

[4] = test system: Eschericia coli
Experimental: as §1, §2, §3

[5] = test system: Salmonella choleraesuis
Experimental: as §1, §2, §3

CC(C)(C)OC(=O)NC(CCCN)C(=O)NCC1OC2OC3C(CNC(=O)C(CCCN)NC(=O)OC(C)(C)C)OC(OC4C(CNC(=O)C(CCCN)NC(=O)OC(C)(C)C)OC(OC5C(CNC(=O)C(CCCN)NC(=O)OC(C)(C)C)OC(OC6C(CNC(=O)C(CCCN)NC(=O)OC(C)(C)C)OC(OC7C(CNC(=O)C(CCCN)NC(=O)OC(C)(C)C)OC(OC8C(CNC(=O)C(CCCN)NC(=O)OC(C)(C)C)OC(OC1C(O)C2O)C(O)C8O)C(O)C7O)C(O)C6O)C(O)C5O)C(O)C4O)C(O)C3O.Cl.Cl.Cl.Cl.Cl.Cl.Cl (stereo not shown)
>200 µg/mL: MIC EF [1] | MIC PA [2] | MIC SA [3]

Cl.Cl.Cl.Cl.Cl.Cl.Cl.NC(CO)C(=O)NCC1OC2OC3C(CNC(=O)C(N)CO)OC(OC4C(CNC(=O)C(N)CO)OC(OC5C(CNC(=O)C(N)CO)OC(OC6C(CNC(=O)C(N)CO)OC(OC7C(CNC(=O)C(N)CO)OC(OC8C(CNC(=O)C(N)CO)OC(OC1C(O)C2O)C(O)C8O)C(O)C7O)C(O)C6O)C(O)C5O)C(O)C4O)C(O)C3O (stereo not shown)
>200 µg/mL: MIC EC [4] | MIC PA [2] | MIC SC [5] | MIC SA [3]

CC(O)C(N)C(=O)NCC1OC2OC3C(CNC(=O)C(N)C(C)O)OC(OC4C(CNC(=O)C(N)C(C)O)OC(OC5C(CNC(=O)C(N)C(C)O)OC(OC6C(CNC(=O)C(N)C(C)O)OC(OC7C(CNC(=O)C(N)C(C)O)OC(OC8C(CNC(=O)C(N)C(C)O)OC(OC1C(O)C2O)C(O)C8O)C(O)C7O)C(O)C6O)C(O)C5O)C(O)C4O)C(O)C3O.Cl.Cl.Cl.Cl.Cl.Cl.Cl (stereo not shown)
>200 µg/mL: MIC EC [4] | MIC PA [2] | MIC SC [5] | MIC SA [3]

COC(=O)c1cccc(NCC2OC3OC4C(CNc5cccc(C(=O)OC)c5)OC(OC5C(CNc6cccc(C(=O)OC)c6)OC(OC6C(CNc7cccc(C(=O)OC)c7)OC(OC7C(CNc8cccc(C(=O)OC)c8)OC(OC8C(CNc9cccc(C(=O)OC)c9)OC(OC9C(CNc%10cccc(C(=O)OC)c%10)OC(OC2C(O)C3O)C(O)C9O)C(O)C8O)C(O)C7O)C(O)C6O)C(O)C5O)C(O)C4O)c1 (stereo not shown)
>200 µg/mL: MIC EC [4] | MIC PA [2] | MIC SC [5] | MIC SA [3]

OC1C2OC(CN3CCCc4ccccc43)C(OC3OC(CN4CCCc5ccccc54)C(OC4OC(CN5CCCc6ccccc65)C(OC5OC(CN6CCCc7ccccc76)C(OC6OC(CN7CCCc8ccccc87)C(OC7OC(CN8CCCc9ccccc98)C(OC8OC(CN9CCCc%10ccccc%109)C(O2)C(O)C8O)C(O)C7O)C(O)C6O)C(O)C5O)C(O)C4O)C(O)C3O)C1O (stereo not shown)
>200 µg/mL: MIC EF [1] | MIC EC [4] | MIC PA [2] | MIC SC [5]

OC1C2OC(CNC3CCCc4ccccc43)C(OC3OC(CNC4CCCc5ccccc54)C(OC4OC(CNC5CCCc6ccccc65)C(OC5OC(CNC6CCCc7ccccc76)C(OC6OC(CNC7CCCc8ccccc87)C(OC7OC(CNC8CCCc9ccccc98)C(OC8OC(CNC9CCCc%10ccccc%109)C(O2)C(O)C8O)C(O)C7O)C(O)C6O)C(O)C5O)C(O)C4O)C(O)C3O)C1O (stereo not shown)
>200 µg/mL: MIC EF [1] | MIC EC [4] | MIC PA [2]

CCCCCCCCCCCCCCCC[N+]12CC[N+](CC(=O)NCC3OC4OC5C(CNC(=O)C[N+]67CC[N+](CCCCCCCCCCCCCCCC)(CC6)CC7)OC(OC6C(CNC(=O)C[N+]78CC[N+](CCCCCCCCCCCCCCCC)(CC7)CC8)OC(OC7C(CNC(=O)C[N+]89CC[N+](CCCCCCCCCCCCCCCC)(CC8)CC9)OC(OC8C(CNC(=O)C[N+]9%10CC[N+](CCCCCCCCCCCCCCCC)(CC9)CC%10)OC(OC9C(CNC(=O)C[N+]%10%11CC[N+](CCCCCCCCCCCCCCCC)(CC%10)CC%11)OC(OC%10C(CNC(=O)C[N+]%11%12CC[N+](CCCCCCCCCCCCCCCC)(CC%11)CC%12)OC(OC3C(O)C4O)C(O)C%10O)C(O)C9O)C(O)C8O)C(O)C7O)C(O)C6O)C(O)C5O)(CC1)CC2 (stereo not shown)
>200 µg/mL: MIC EF [1] | MIC EC [4] | MIC PA [2] | MIC SC [5]

Cc1ccc(NCC2OC3OC4C(CNc5ccc(C)cc5)OC(OC5C(CNc6ccc(C)cc6)OC(OC6C(CNc7ccc(C)cc7)OC(OC7C(CNc8ccc(C)cc8)OC(OC8C(CNc9ccc(C)cc9)OC(OC9C(CNc%10ccc(C)cc%10)OC(OC2C(O)C3O)C(O)C9O)C(O)C8O)C(O)C7O)C(O)C6O)C(O)C5O)C(O)C4O)cc1 (stereo not shown)
>200 µg/mL: MIC EF [1] | MIC EC [4] | MIC PA [2] | MIC SC [5]

Cl.Cl.Cl.Cl.Cl.Cl.NCCCCCCSCC1OC2OC3C(CSCCCCCCN)OC(OC4C(CSCCCCCCN)OC(OC5C(CSCCCCCCN)OC(OC6C(CSCCCCCCN)OC(OC7C(CSCCCCCCN)OC(OC1C(O)C2O)C(O)C7O)C(O)C6O)C(O)C5O)C(O)C4O)C(O)C3O (stereo not shown)
>200 µg/mL: MIC EF [1] | MIC EC [4] | MIC SC [5] | MIC SA [3]

Cl.Cl.Cl.Cl.Cl.Cl.Cl.NCCCCCCCSCC1OC2OC3C(CSCCCCCCCN)OC(OC4C(CSCCCCCCCN)OC(OC5C(CSCCCCCCCN)OC(OC6C(CSCCCCCCCN)OC(OC7C(CSCCCCCCCN)OC(OC8C(CSCCCCCCCN)OC(OC1C(O)C2O)C(O)C8O)C(O)C7O)C(O)C6O)C(O)C5O)C(O)C4O)C(O)C3O (stereo not shown)
>200 µg/mL: MIC EF [1] | MIC PA [2] | MIC SC [5] | MIC SA [3]

OC1C2OC(CN3CCN(C4CCCCC4)CC3)C(OC3OC(CN4CCN(C5CCCCC5)CC4)C(OC4OC(CN5CCN(C6CCCCC6)CC5)C(OC5OC(CN6CCN(C7CCCCC7)CC6)C(OC6OC(CN7CCN(C8CCCCC8)CC7)C(OC7OC(CN8CCN(C9CCCCC9)CC8)C(OC8OC(CN9CCN(C%10CCCCC%10)CC9)C(O2)C(O)C8O)C(O)C7O)C(O)C6O)C(O)C5O)C(O)C4O)C(O)C3O)C1O (stereo not shown)
>200 µg/mL: MIC EF [1] | MIC EC [4] | MIC PA [2] | MIC SC [5]

Cl.Cl.Cl.Cl.Cl.Cl.Cl.N=C(N)NCCCCCCSCC1OC2OC3C(CSCCCCCCNC(=N)N)OC(OC4C(CSCCCCCCNC(=N)N)OC(OC5C(CSCCCCCCNC(=N)N)OC(OC6C(CSCCCCCCNC(=N)N)OC(OC7C(CSCCCCCCNC(=N)N)OC(OC8C(CSCCCCCCNC(=N)N)OC(OC1C(O)C2O)C(O)C8O)C(O)C7O)C(O)C6O)C(O)C5O)C(O)C4O)C(O)C3O (stereo not shown)
>200 µg/mL: MIC EF [1] | MIC EC [4] | MIC PA [2] | MIC SC [5]

CC(C)[C@H](C)NCC1OC2OC3C(CN[C@@H](C)C(C)C)OC(OC4C(CN[C@@H](C)C(C)C)OC(OC5C(CN[C@@H](C)C(C)C)OC(OC6C(CN[C@@H](C)C(C)C)OC(OC7C(CN[C@@H](C)C(C)C)OC(OC8C(CN[C@@H](C)C(C)C)OC(OC1C(O)C2O)C(O)C8O)C(O)C7O)C(O)C6O)C(O)C5O)C(O)C4O)C(O)C3O (stereo partly shown)
>200 µg/mL: MIC EF [1] | MIC PA [2]

Cl.Cl.Cl.Cl.Cl.Cl.Cl.NCCSCCCSCC1OC2OC3C(CSCCCSCCN)OC(OC4C(CSCCCSCCN)OC(OC5C(CSCCCSCCN)OC(OC6C(CSCCCSCCN)OC(OC7C(CSCCCSCCN)OC(OC8C(CSCCCSCCN)OC(OC1C(O)C2O)C(O)C8O)C(O)C7O)C(O)C6O)C(O)C5O)C(O)C4O)C(O)C3O (stereo not shown)
>200 µg/mL: MIC EF [1] | MIC PA [2] | MIC SC [5] | MIC SA [3]
